Experiment: Cycle 1 normal organ dosimetry (SPECT/CT, TIACs, OLINDA 2.2.3)
Assay type: in vivo, human
Settings: for Absorbed Dose, Mean / Absorbed Dose, max / Absorbed Dose, median / Absorbed Dose, min: Cycle 1, n = 26; for Absorbed Dose in Cycle 1, Mean / Absorbed Dose in Cycle 1, max / Absorbed Dose in Cycle 1, min: N = 16 patients imaged at cycle 1 and 3
Experimental: This Example presents the biodistribution, dosimetry, and pharmacokinetics (PK) results of a PK/Dosimetry sub-study performed as part of a Phase III trial. Twenty-seven (27) patients were administered a target activity of 7.4±10% GBq of ^177Lu-PSMA-I&T and underwent single photon emission computed tomography (SPECT)/computed tomography (CT) imaging at four timepoints (4 h, 24 h, 48 h, and 168 h). Image data was analysed to compute time-activity curves (TACs) and subsequently time-integrated activity coefficients (TIACs) in each organ of interest and in organs showing appreciable and meaningful ^177Lu-PSMA-I&T activity. Organ Level Internal Dose Assessment (OLINDA 2.2.3) was used to compute organ and whole body absorbed radiation doses for each patient.
All participating sites underwent a rigorous site setup process during which all dose calibrators, scanners, and gamma counters used in the sub-study were calibrated. Sites were allowed to enroll patients in the sub-study only after the completion and approval of all site setup processes by Invicro. Patients underwent SPECT/CT imaging, with anatomical coverage typically extending from the salivary glands to the pelvis, following the administration of a targeted 7.4±10% GBq of ^177Lu-PSMA-I&T at cycle 1. SPECT/CT imaging was performed at four timepoints: 4 h, 24 h, 48 h, and 168 h post-injection. Additionally, a subset of patients imaged at Cycle 1 (16 out of 27), were also imaged at Cycle 3 (Table 2).
In general, raw projection data was acquired into a 128×128 matrix with medium energy general purpose (MEGP) collimation using a step and shoot acquisition mode, acquiring 60 projections per detector (180 degrees rotation per detector), 20 seconds per projection, with an acquisition zoom of 1.0, and a 20% (±10%) energy window centered over 208 keV.
A low-dose CT scan was performed prior to beginning the SPECT scan for attenuation correction. Sites were instructed to use the Institutional standard parameters for acquisition of the low-dose CT. Institutional standard reconstruction parameters were used. Scatter correction was required to be applied using a 20% (±10%) scatter window centered over 170 keV.
The imaging data was analyzed using Invicro's VivoQuant software, a validated software used in a 21 CFR § 11-compliant workflow. The general quantification approach was based on the principles detailed in the Medical Internal Radiation Dose (MIRD) Pamphlet No. 16, No 23, and No 26 as appropriate.
SPECT images were calibrated in units of Becquerel (Bq) using a calibration factor derived from a source of known activity, measured during site set up with the same acquisition and reconstruction parameters employed for patient imaging. A patient-specific calibration factor was also derived at each clinical time point after acquisition of the patient SPECT/CT. As a quality control measure, if the patient-specific calibration factor differed by more than 10% from the site set up calibration factor, an investigation was conducted.
Volume of interest (VOI) (kidneys, bladder, liver, lumbar vertebrae L2-L4, lacrimal glands, salivary glands [parotid and submandibular glands], and whole body) were delineated on each dataset by a trained image analyst. […] Organs were segmented either by drawing the entire contour of the organ, or by placing a sphere in a representative region of the organ and then multiplying by the organ's effective mass (based on patient's height and weight). Segmentation methods for each organ are specified in Table 3 and were consistently applied to each patient.
Clearance of the radiopharmaceutical was derived from a data-appropriate fit of each organ's TAC. Depending on the TAC's shape, the data was fitted with the sum of one, two, or three exponentials, or using a rise and fall model. Fitting was performed with in-house Python software. TIACs were calculated through analytical integration of the curve fit extrapolated to infinity. […]

[1] = Lacrimal Glands (OLINDA sphere model)

Absorbed Dose, Mean (Adrenals): 0.02 Gy/GBq
Absorbed Dose, max (Adrenals): 0.08 Gy/GBq
Absorbed Dose, median (Adrenals): 0.02 Gy/GBq
Absorbed Dose, min (Adrenals): 0.01 Gy/GBq
Absorbed Dose in Cycle 1, Mean (Adrenals): 0.02 Gy/GBq
Absorbed Dose in Cycle 1, max (Adrenals): 0.08 Gy/GBq
Absorbed Dose in Cycle 1, min (Adrenals): 0.01 Gy/GBq
Absorbed Dose, Mean (Brain): 0.01 Gy/GBq
Absorbed Dose, max (Brain): 0.07 Gy/GBq
Absorbed Dose, median (Brain): 0.01 Gy/GBq
Absorbed Dose, min (Brain): 0.00 Gy/GBq
Absorbed Dose in Cycle 1, Mean (Brain): 0.01 Gy/GBq
Absorbed Dose in Cycle 1, max (Brain): 0.07 Gy/GBq
Absorbed Dose in Cycle 1, min (Brain): 0.00 Gy/GBq
Absorbed Dose, Mean (Esophagus): 0.02 Gy/GBq
Absorbed Dose, max (Esophagus): 0.07 Gy/GBq
Absorbed Dose, median (Esophagus): 0.01 Gy/GBq
Absorbed Dose, min (Esophagus): 0.00 Gy/GBq
Absorbed Dose in Cycle 1, Mean (Esophagus): 0.01 Gy/GBq
Absorbed Dose in Cycle 1, max (Esophagus): 0.07 Gy/GBq
Absorbed Dose in Cycle 1, min (Esophagus): 0.00 Gy/GBq
Absorbed Dose, Mean (Eyes): 0.01 Gy/GBq
Absorbed Dose, max (Eyes): 0.07 Gy/GBq
Absorbed Dose, median (Eyes): 0.01 Gy/GBq
Absorbed Dose, min (Eyes): 0.00 Gy/GBq
Absorbed Dose in Cycle 1, Mean (Eyes): 0.01 Gy/GBq
Absorbed Dose in Cycle 1, max (Eyes): 0.07 Gy/GBq
Absorbed Dose in Cycle 1, min (Eyes): 0.00 Gy/GBq
Absorbed Dose, Mean (Gallbladder wall): 0.02 Gy/GBq
Absorbed Dose, max (Gallbladder wall): 0.07 Gy/GBq
Absorbed Dose, median (Gallbladder wall): 0.01 Gy/GBq
Absorbed Dose, min (Gallbladder wall): 0.00 Gy/GBq
Absorbed Dose in Cycle 1, Mean (Gallbladder wall): 0.02 Gy/GBq
Absorbed Dose in Cycle 1, max (Gallbladder wall): 0.07 Gy/GBq
Absorbed Dose in Cycle 1, min (Gallbladder wall): 0.00 Gy/GBq
Absorbed Dose, Mean (Heart wall): 0.02 Gy/GBq
Absorbed Dose, max (Heart wall): 0.07 Gy/GBq
Absorbed Dose, median (Heart wall): 0.01 Gy/GBq
Absorbed Dose, min (Heart wall): 0.00 Gy/GBq
Absorbed Dose in Cycle 1, Mean (Heart wall): 0.01 Gy/GBq
Absorbed Dose in Cycle 1, max (Heart wall): 0.07 Gy/GBq
Absorbed Dose in Cycle 1, min (Heart wall): 0.00 Gy/GBq
Absorbed Dose, Mean (Kidneys): 0.41 Gy/GBq
Absorbed Dose, max (Kidneys): 0.81 Gy/GBq
Absorbed Dose, median (Kidneys): 0.37 Gy/GBq
Absorbed Dose, min (Kidneys): 0.17 Gy/GBq
Absorbed Dose in Cycle 1, Mean (Kidneys): 0.41 Gy/GBq
Absorbed Dose in Cycle 1, max (Kidneys): 0.81 Gy/GBq
Absorbed Dose in Cycle 1, min (Kidneys): 0.17 Gy/GBq
Absorbed Dose in Cycle 1, Mean [1]: 0.39 Gy/GBq
Absorbed Dose in Cycle 1, max [1]: 1.19 Gy/GBq
Absorbed Dose in Cycle 1, min [1]: 0.04 Gy/GBq
Absorbed Dose, Mean (Lacrimal Glands): 0.40 Gy/GBq
Absorbed Dose, max (Lacrimal Glands): 1.19 Gy/GBq
Absorbed Dose, median (Lacrimal Glands): 0.26 Gy/GBq
Absorbed Dose, min (Lacrimal Glands): 0.04 Gy/GBq
Absorbed Dose, Mean (Left colon): 0.47 Gy/GBq
Absorbed Dose, max (Left colon): 1.53 Gy/GBq
Absorbed Dose, median (Left colon): 0.41 Gy/GBq
Absorbed Dose, min (Left colon): 0.01 Gy/GBq
Absorbed Dose in Cycle 1, Mean (Left colon): 0.52 Gy/GBq
Absorbed Dose in Cycle 1, max (Left colon): 1.53 Gy/GBq
Absorbed Dose in Cycle 1, min (Left colon): 0.01 Gy/GBq
Absorbed Dose, Mean (Liver): 0.04 Gy/GBq
Absorbed Dose, max (Liver): 0.10 Gy/GBq
Absorbed Dose, median (Liver): 0.03 Gy/GBq
Absorbed Dose, min (Liver): 0.01 Gy/GBq
Absorbed Dose in Cycle 1, Mean (Liver): 0.04 Gy/GBq
Absorbed Dose in Cycle 1, max (Liver): 0.10 Gy/GBq
Absorbed Dose in Cycle 1, min (Liver): 0.01 Gy/GBq
Absorbed Dose, Mean (Lungs): 0.01 Gy/GBq
Absorbed Dose, max (Lungs): 0.07 Gy/GBq
Absorbed Dose, median (Lungs): 0.01 Gy/GBq
Absorbed Dose, min (Lungs): 0.00 Gy/GBq
Absorbed Dose in Cycle 1, Mean (Lungs): 0.01 Gy/GBq
Absorbed Dose in Cycle 1, max (Lungs): 0.07 Gy/GBq
Absorbed Dose in Cycle 1, min (Lungs): 0.00 Gy/GBq
Absorbed Dose, Mean (Osteogenic cells): 0.05 Gy/GBq
Absorbed Dose, max (Osteogenic cells): 0.29 Gy/GBq
Absorbed Dose, median (Osteogenic cells): 0.02 Gy/GBq
Absorbed Dose, min (Osteogenic cells): 0.00 Gy/GBq
Absorbed Dose in Cycle 1, Mean (Osteogenic cells): 0.04 Gy/GBq
Absorbed Dose in Cycle 1, max (Osteogenic cells): 0.19 Gy/GBq
Absorbed Dose in Cycle 1, min (Osteogenic cells): 0.00 Gy/GBq
Absorbed Dose, Mean (Pancreas): 0.02 Gy/GBq
Absorbed Dose, max (Pancreas): 0.07 Gy/GBq
Absorbed Dose, median (Pancreas): 0.01 Gy/GBq
Absorbed Dose, min (Pancreas): 0.00 Gy/GBq
Absorbed Dose in Cycle 1, Mean (Pancreas): 0.02 Gy/GBq
Absorbed Dose in Cycle 1, max (Pancreas): 0.07 Gy/GBq
Absorbed Dose in Cycle 1, min (Pancreas): 0.00 Gy/GBq
Absorbed Dose, Mean (Prostate): 0.02 Gy/GBq
Absorbed Dose, max (Prostate): 0.07 Gy/GBq
Absorbed Dose, median (Prostate): 0.01 Gy/GBq
Absorbed Dose, min (Prostate): 0.01 Gy/GBq
Compound: O=C(O)CC[C@H](NC(=O)N[C@@H](CCCCNC(=O)CCCCCCC(=O)NCCCC[C@@H](NC(=O)[C@@H](Cc1ccccc1)NC(=O)[C@@H](Cc1ccc(O)c(I)c1)NC(=O)CC[C@H](C(=O)O)N1CCN(CC(=O)O)CCN(CC(=O)O)CCN(CC(=O)O)CC1)C(=O)O)C(=O)O)C(=O)O [^177Lu-PSMA-I&T, (3S,7 S,26R,29R,32R,37R)-29-benzyl-32-(4-hydroxy-3-iodobenzyl)-5,13,20,28,31,34-hexaoxo-37-(4,7,10-tris(carboxymethyl)-1,4,7,10-tetraazacyclododecan-1-yl)-4,6,12,21,27,30,33-heptaazaheptatriacontane-1,3,7,26,37-pentacarboxylic acid; lutetium-177 (III), metal not drawn]

Reference: patent US20250262336A1, “[177LU] LUTETIUM-PSMA I&T COMPOSITION AND DOSIMETRY, KIT, METHOD OF MAKING, AND METHOD OF USING THEREOF” (Curium US LLC, priority 2023, published 2025)
